The text below walks through data of ChEMBL document CHEMBL1158047, “Lanostane triterpenoids from the Sri Lankan basidiomycete Ganoderma applanatum” (2006).

A value given as a limit tells only on which side of the number the result lay.

For the test, the system named is P388. Kind of test: Cytotoxicity against mouse P388 cells. It counts as functional.
In the case of `C=C(C(=O)C[C@@H](C)[C@H]1CC[C@@]2(C)C3=C(CC[C@]12C)[C@@]1(C)CC[C@@H](OC(=O)CC(=O)O)C(C)(C)[C@@H]1CC3)C(C)C(=O)O` (stereo not given in full), the Activity was over 125 µg/mL.
For the molecule `CC(C)=CCC[C@@H](C(=O)O)[C@H]1[C@H](O)C[C@@]2(C)C3=CC[C@H]4C(C)(C)[C@H](O)CC[C@]4(C)C3=CC[C@]12C`, the Activity was over 125 µg/mL.
`C/C(=C\CC[C@@H](C(=O)O)[C@H]1[C@H](O)C[C@@]2(C)C3=CC[C@H]4C(C)(C)[C@H](O)CC[C@]4(C)C3=CC[C@]12C)CO`: the Activity was over 125 µg/mL.
On to `CC(C)=CCC[C@@H](C(=O)O)[C@H]1[C@H](O)C[C@@]2(C)C3=CC[C@H]4C(C)(C)C(=O)CC[C@]4(C)C3=CC[C@]12C`, for which the Activity came to 237 µM.
`CC(C(=O)O)[C@@H](C)C(=O)C[C@@H](C)[C@H]1CC[C@@]2(C)C3=C(CC[C@]12C)[C@@]1(C)CC[C@@H](OC(=O)CC(=O)O)C(C)(C)[C@@H]1CC3` (stereo not given in full) [CARBOXYACETYLQUERCINIC ACID] came in with an Activity of over 125 µg/mL.
